Results from BigSolDB 2.1.

Nc1cc([N+](=O)[O-])ccc1Cl
solubility (mole fraction)
Settings | 273.15 K | 278.15 K | 283.15 K | 288.15 K | 293.15 K | 298.15 K | 303.15 K | 308.15 K | 313.15 K
in 1,4-dioxane | – | – | – | 0.11 | 0.119 | 0.13 | 0.142 | 0.154 | 0.169
in 2-butanone | 0.0877 | 0.0973 | 0.108 | 0.119 | 0.13 | 0.141 | 0.153 | 0.165 | 0.179
in NMP | 0.155 | 0.161 | 0.166 | 0.173 | 0.179 | 0.186 | 0.193 | 0.201 | 0.209
in acetone | 0.103 | 0.112 | 0.122 | 0.133 | 0.144 | 0.156 | 0.168 | 0.182 | 0.197
in acetonitrile | 0.0222 | 0.0277 | 0.0342 | 0.0413 | 0.0495 | 0.0579 | 0.0671 | 0.077 | 0.0877
in ethanol | 0.0097 | 0.0112 | 0.0129 | 0.0149 | 0.0173 | 0.0198 | 0.0227 | 0.0258 | 0.0297
in ethyl acetate | 0.0765 | 0.0836 | 0.0915 | 0.0991 | 0.107 | 0.116 | 0.126 | 0.135 | 0.145
in isopropanol | 0.0047 | 0.0059 | 0.0074 | 0.0091 | 0.0109 | 0.0132 | 0.0158 | 0.0188 | 0.0226
in methanol | 0.0071 | 0.0085 | 0.01 | 0.0118 | 0.0141 | 0.0165 | 0.0193 | 0.0227 | 0.0263
in n-butanol | 0.0055 | 0.0069 | 0.0086 | 0.0104 | 0.0128 | 0.0153 | 0.0182 | 0.0213 | 0.0252
in n-propanol | 0.008 | 0.0094 | 0.011 | 0.0129 | 0.0152 | 0.0177 | 0.0209 | 0.0246 | 0.0283
in toluene | 0.0118 | 0.0134 | 0.0153 | 0.0174 | 0.0199 | 0.0231 | 0.0268 | 0.0309 | 0.0352
